Drawing on US20260167620A1, “MULTIFUNCTIONAL COMPOUND CAPABLE OF DEGRADING BTK KINASE, AND COMPOSITION AND USE” (HANGZHOU HEALZEN THERAPEUTICS CO., LTD., priority 2021, published 2026), this text covers DC50 for 21 compounds.

A word on the DC50: it is the midpoint of the concentration-degradation curve.

The assay deals with T1, BTK (Homo sapiens, UniProt Q06187).
T1 construct: endogenous in cells; host or cells: Mino cells
T1 sequence (Q06187 whole entry): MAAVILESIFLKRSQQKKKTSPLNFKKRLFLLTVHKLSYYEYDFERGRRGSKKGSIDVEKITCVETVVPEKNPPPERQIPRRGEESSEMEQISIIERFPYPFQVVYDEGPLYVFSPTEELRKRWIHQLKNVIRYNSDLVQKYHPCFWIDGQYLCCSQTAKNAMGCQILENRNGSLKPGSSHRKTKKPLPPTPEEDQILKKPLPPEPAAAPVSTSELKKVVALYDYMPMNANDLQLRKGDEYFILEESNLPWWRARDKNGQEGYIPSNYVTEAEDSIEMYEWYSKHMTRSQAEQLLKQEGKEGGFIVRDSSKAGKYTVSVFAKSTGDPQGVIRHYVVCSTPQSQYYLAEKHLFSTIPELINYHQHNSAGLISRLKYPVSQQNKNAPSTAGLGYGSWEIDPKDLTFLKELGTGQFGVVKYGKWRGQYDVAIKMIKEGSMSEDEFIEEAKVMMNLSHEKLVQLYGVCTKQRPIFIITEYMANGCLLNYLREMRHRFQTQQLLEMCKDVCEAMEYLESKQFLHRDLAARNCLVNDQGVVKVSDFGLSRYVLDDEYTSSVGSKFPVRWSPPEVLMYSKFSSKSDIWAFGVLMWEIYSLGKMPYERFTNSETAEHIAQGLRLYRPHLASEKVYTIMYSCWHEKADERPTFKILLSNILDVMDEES
The experiment in a line: BTK degradation activity test in Mino cells (Westernblot or Elisa). It is filed as cell-based. Particulars: 24-72 h incubation. On the procedure:
The Mino cell line cells are 0.5˜1 million/well in 6-well plates. The compounds are diluted to different concentrations, added to the plate, and after 24-72 h of incubation, the cells are collected. After the cells were lysed, the total protein concentration in each well was determined with a BCA kit. The amount of BTK is determined using the Westernblot or Elisa method.
As for `NC(=O)c1nnc(N2CCCCC2)nc1Nc1ccc(N2CCN(CC3CN(c4ccc5c(c4)C(=O)N(C4CCC(=O)NC4=O)C5=O)C3)CC2)cc1` (stereo not drawn) [Compound 006, 5-((4-(4-((1-(2-(2,6-dioxopiperidin-3-yl)-1,3-dioxoisoindolin-5-yl)azetidin-3-yl)methyl)piperazin-1-yl)phenyl)amino)-3-(piperidin-1-yl)-1,2,4-triazine-6-carboxamide], the DC50 is less than 10 nM. Take `NC(=O)c1nnc(N2CCCCC2)nc1Nc1ccc(C2CCN(CC3CN(c4ccc5c(c4)C(=O)N(C4CCC(=O)NC4=O)C5=O)C3)CC2)cc1` (stereo not drawn) [Compound 008, 5-((4-(1-((1-(2-(2,6-dioxopiperidin-3-yl)-1,3-dioxoisoindolin-5-yl)azetidin-3-yl)methyl)piperidin-4-yl)phenyl)amino)-3-(piperidin-1-yl)-1,2,4-triazine-6-carboxamide]: the 50% degradation concentration (DC50) was less than 10 nM. As to `NC(=O)c1nnc(N2CCCCC2)nc1Nc1ccc(C2CCN(CC3CCN(c4ccc5c(c4)CN(C4CCC(=O)NC4=O)C5=O)C3)CC2)cc1` (stereo not drawn) [Compound 009, 5-((4-(1-((1-(2-(2,6-dioxopiperidin-3-yl)-1-oxoisoindolin-5-yl)pyrrolidin-3-yl)methyl)piperidin-4-yl)phenyl)amino)-3-(piperidin-1-yl)-1,2,4-triazine-6-carboxamide], the DC50 is less than 10 nM. `NC(=O)c1nnc(N2CCCCC2)nc1Nc1ccc(C2CCN(CC3CCN(c4cc5c(cc4F)C(=O)N(C4CCC(=O)NC4=O)C5)C3)CC2)cc1` (stereo not drawn) [Compound 010, 5-((4-(1-((1-(2-(2,6-dioxopiperidin-3-yl)-6-fluoro-1-oxoisoindolin-5-yl)pyrrolidin-3-yl)methyl)piperidin-4-yl)phenyl)amino)-3-(piperidin-1-yl)-1,2,4-triazine-6-carboxamide] yielded a DC50 of less than 10 nM. In the case of `NC(=O)c1nnc(N2CCC[C@@H](O)C2)nc1Nc1ccc(C2CCN(CC3CCN(c4ccc5c(c4)C(=O)N(C4CCC(=O)NC4=O)C5=O)C3)CC2)cc1` (stereo partly drawn) [Compound 015, 5-((4-(1-((1-(2-(2,6-dioxopiperidin-3-yl)-1,3-dioxoisoindolin-5-yl)pyrrolidin-3-yl)methyl)piperidin-4-yl)phenyl)amino)-3-((R)-3-hydroxypiperidin-1-yl)-1,2,4-triazine-6-carboxamide], the DC50 is less than 10 nM. The compound `CC[C@H](Nc1nnc(C(N)=O)c(Nc2ccc(C3CCN(CC4CCN(c5ccc6c(c5)C(=O)N(C5CCC(=O)NC5=O)C6=O)C4)CC3)cc2)n1)C(N)=O` (stereo partly drawn) [Compound 017, 3-(((S)-1-amino-1-oxobutan-2-yl)amino)-5-((4-(1-((1-(2-(2,6-dioxopiperidin-3-yl)-1,3-dioxoisoindolin-5-yl)pyrrolidin-3-yl)methyl)piperidin-4-yl)phenyl)amino)-1,2,4-triazine-6-carboxamide] displayed a DC50 of less than 10 nM. To `CN1CCN(c2nnc(C(N)=O)c(Nc3ccc(C4CCN(CC5CCN(c6ccc7c(c6)C(=O)N(C6CCC(=O)NC6=O)C7=O)C5)CC4)cc3)n2)CC1` (stereo not drawn) [Compound 018, 5-((4-(1-((1-(2-(2,6-dioxopiperidin-3-yl)-1,3-dioxoisoindolin-5-yl)pyrrolidin-3-yl)methyl)piperidin-4-yl)phenyl)amino)-3-(4-methylpiperazin-1-yl)-1,2,4-triazine-6-carboxamide] belongs less than 10 nM; to `N#Cc1cccc(Nc2nnc(C(N)=O)c(Nc3ccc(C4CCN(CC5CCN(c6ccc7c(c6)C(=O)N(C6CCC(=O)NC6=O)C7=O)C5)CC4)cc3)n2)c1` (stereo not drawn) [Compound 020, 3-((3-cyanophenyl)amino)-5-((4-(1-((1-(2-(2,6-dioxopiperidin-3-yl)-1,3-dioxoisoindolin-5-yl)pyrrolidin-3-yl)methyl)piperidin-4-yl)phenyl)amino)-1,2,4-triazine-6-carboxamide], less than 10 nM; to `NC(=O)c1nnc(Nc2ccccn2)nc1Nc1ccc(C2CCN(CC3CCN(c4ccc5c(c4)C(=O)N(C4CCC(=O)NC4=O)C5=O)C3)CC2)cc1` (stereo not drawn) [Compound 021, 5-((4-(1-((1-(2-(2,6-dioxopiperidin-3-yl)-1,3-dioxoisoindolin-5-yl)pyrrolidin-3-yl)methyl)piperidin-4-yl)phenyl)amino)-3-(pyridin-2-ylamino)-1,2,4-triazine-6-carboxamide], less than 10 nM. For the compound `NC(=O)c1nnc(N2CC[C@@H](O)C2)nc1Nc1ccc(C2CCN(CC3CCN(c4ccc5c(c4)C(=O)N(C4CCC(=O)NC4=O)C5=O)C3)CC2)cc1` (stereo partly drawn) [Compound 022, 5-((4-(1-((1-(2-(2,6-dioxopiperidin-3-yl)-1,3-dioxoisoindolin-5-yl)pyrrolidin-3-yl)methyl)piperidin-4-yl)phenyl)amino)-3-((R)-3-hydroxypyrrolidin-1-yl)-1,2,4-triazine-6-carboxamide], the DC50 is less than 10 nM. The compound `NC(=O)c1nnc(-c2nccs2)nc1Nc1ccc(C2CCN(CC3CCN(c4ccc5c(c4)C(=O)N(C4CCC(=O)NC4=O)C5=O)C3)CC2)cc1` (stereo not drawn) [Compound 024, 5-((4-(1-((1-(2-(2,6-dioxopiperidin-3-yl)-1,3-dioxoisoindolin-5-yl)pyrrolidin-3-yl)methyl)piperidin-4-yl)phenyl)amino)-3-(thiazol-2-yl)-1,2,4-triazine-6-carboxamide] gave a DC50 of less than 10 nM. Compound `NC(=O)c1nnc(-c2ncc[nH]2)nc1Nc1ccc(C2CCN(CC3CCN(c4ccc5c(c4)C(=O)N(C4CCC(=O)NC4=O)C5=O)C3)CC2)cc1` (stereo not drawn) [Compound 025, 5-((4-(1-((1-(2-(2,6-dioxopiperidin-3-yl)-1,3-dioxoisoindolin-5-yl)pyrrolidin-3-yl)methyl)piperidin-4-yl)phenyl)amino)-3-(1H-imidazol-2-yl)-1,2,4-triazine-6-carboxamide] registered a DC50 of less than 10 nM. In turn, `NC(=O)c1nnc(-c2cccnc2)nc1Nc1ccc(C2CCN(CC3CCN(c4ccc5c(c4)C(=O)N(C4CCC(=O)NC4=O)C5=O)C3)CC2)cc1` (stereo not drawn) [Compound 026, 5-((4-(1-((1-(2-(2,6-dioxopiperidin-3-yl)-1,3-dioxoisoindolin-5-yl)pyrrolidin-3-yl)methyl)piperidin-4-yl)phenyl)amino)-3-(pyridin-3-yl)-1,2,4-triazine-6-carboxamide] gave a DC50 of less than 10 nM. Turning to `NC(=O)c1nnc(Oc2cccc(O)c2)nc1Nc1ccc(C2CCN(CC3CCN(c4ccc5c(c4)C(=O)N(C4CCC(=O)NC4=O)C5=O)C3)CC2)cc1` (stereo not drawn) [Compound 027, 5-((4-(m-((1-(2-(2,6-dioxopiperidin-3-yl)-1,3-dioxoisoindolin-5-yl)pyrrolidin-3-yl)methyl)piperidin-4-yl)phenyl)amino)-3-(3-hydroxyphenoxy)-1,2,4-triazine-6-carboxamide], the DC50 was less than 10 nM. `NC(=O)c1nnc(Oc2cccc(F)c2F)nc1Nc1ccc(C2CCN(CC3CCN(c4ccc5c(c4)C(=O)N(C4CCC(=O)NC4=O)C5=O)C3)CC2)cc1` (stereo not drawn) [Compound 028, 3-(2,3-difluorophenoxy)-5-((4-(1-((1-(2-(2,6-dioxopiperidin-3-yl)-1,3-dioxoisoindolin-5-yl)pyrrolidin-3-yl)methyl)piperidin-4-yl)phenyl)amino)-1,2,4-triazine-6-carboxamide] gave a DC50 of less than 10 nM. In turn, `NC(=O)c1nnc(N2CCC[C@@H](N)C2)nc1Nc1ccc(C2CCN(CC3CCN(c4ccc5c(c4)C(=O)N(C4CCC(=O)NC4=O)C5=O)C3)CC2)cc1` (stereo partly drawn) [Compound 029, 3-((R)-3-aminopiperidin-1-yl)-5-((4-(1-((1-(2-(2,6-dioxopiperidin-3-yl)-1,3-dioxoisoindolin-5-yl)pyrrolidin-3-yl)methyl)piperidin-4-yl)phenyl)amino)-1,2,4-triazine-6-carboxamide] yielded a DC50 of less than 10 nM. The compound `NC(=O)c1nnc(N[C@H]2CCCC[C@H]2N)nc1Nc1ccc(C2CCN(CC3CCN(c4ccc5c(c4)C(=O)N(C4CCC(=O)NC4=O)C5=O)C3)CC2)cc1` (stereo partly drawn) [Compound 030, 3-(((1S,2R)-2-aminocyclohexyl)amino)-5-((4-(1-((1-(2-(2,6-dioxopiperidin-3-yl)-1,3-dioxoisoindolin-5-yl)pyrrolidin-3-yl)methyl)piperidin-4-yl)phenyl)amino)-1,2,4-triazine-6-carboxamide] showed a DC50 of less than 10 nM.

Compound `NC(=O)c1nnc(N2CCNCC2)nc1Nc1ccc(C2CCN(CC3CCN(c4ccc5c(c4)C(=O)N(C4CCC(=O)NC4=O)C5=O)C3)CC2)cc1` (stereo not drawn) [Compound 031, 5-((4-(1-((1-(2-(2,6-dioxopiperidin-3-yl)-1,3-dioxoisoindolin-5-yl)pyrrolidin-3-yl)methyl)piperidin-4-yl)phenyl)amino)-3-(piperazin-1-yl)-1,2,4-triazine-6-carboxamide] yielded a DC50 of less than 10 nM.

The compound `NC(=O)c1cnc(N[C@H]2CCCC[C@H]2N)nc1Nc1ccc(C2CCN(CC3CCN(c4ccc5c(c4)C(=O)N(C4CCC(=O)NC4=O)C5=O)C3)CC2)cc1` (stereo partly drawn) [Compound 032, 2-(((1S,2R)-2-aminocyclohexyl)amino)-4-((4-(1-((1-(2-(2,6-dioxopiperidin-3-yl)-1,3-dioxoisoindolin-5-yl)pyrrolidin-3-yl)methyl)piperidin-4-yl)phenyl)amino) pyrimidine-5-carboxamide] had a DC50 of less than 10 nM. On to `NC(=O)c1cnc(N2CCCCC2)nc1Nc1ccc(N2CCN(CC3CCN(c4ccc5c(c4)C(=O)N(C4CCC(=O)NC4=O)C5=O)C3)CC2)c(F)c1` (stereo not drawn) [Compound 034, 4-((4-(4-((1-(2-(2,6-dioxopiperidin-3-yl)-1,3-dioxoisoindolin-5-yl)pyrrolidin-3-yl)methyl)piperazin-1-yl)-3-fluorophenyl)amino)-2-(piperidin-1-yl) pyrimidine-5-carboxamide], for which the DC50 was less than 10 nM. On to `NC(=O)c1cnc(N2CCC[C@@H](O)C2)nc1Nc1ccc(C2CCN(CC3CCN(c4ccc5c(c4)C(=O)N(C4CCC(=O)NC4=O)C5=O)C3)CC2)cc1` (stereo partly drawn) [Compound 035, 4-((4-(1-((1-(2-(2,6-dioxopiperidin-3-yl)-1,3-dioxoisoindolin-5-yl)pyrrolidin-3-yl)methyl)piperidin-4-yl)phenyl)amino)-2-((R)-3-hydroxypiperidin-1-yl) pyrimidine-5-carboxamide], for which the DC50 is less than 10 nM.
